From CN107531679A, “芳香酰胺类衍生物、其制备方法及其在医药上的应用” (Jiangsu Hengrui Medicine Co Ltd, priority 2016, dated 2017)
“Also recorded” adds a separate entry of the source.

Legend:
RORγ = biological target: T1, RORγ (Homo sapiens, UniProt P51449); experiment: TR-FRET RORγ coactivator assay (LanthaScreen); conditions: RORγ LBD
T1 sequence (P51449 269-508 limits assumed): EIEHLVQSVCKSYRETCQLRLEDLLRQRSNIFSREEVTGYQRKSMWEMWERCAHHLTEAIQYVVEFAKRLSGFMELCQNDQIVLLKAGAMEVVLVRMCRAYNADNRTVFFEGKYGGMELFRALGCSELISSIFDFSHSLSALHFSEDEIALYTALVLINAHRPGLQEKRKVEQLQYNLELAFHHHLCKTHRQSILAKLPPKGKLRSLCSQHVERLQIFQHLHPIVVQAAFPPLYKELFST

[1] = tested on: MC38 mouse colon tumour [MC38小鼠结肠肿瘤]; experiment: In vivo efficacy: MC38 colon tumour growth in syngeneic C57BL/6 mice; conditions: for TGI (tumour growth inhibition rate): MC38 in C57BL/6 mice

SMILES | effect on RORγ in vitro activity (mode of modulation, in words) (RORγ) | other results
CCS(=O)(=O)c1ccc(CNC(=O)c2ccc3c(c2)cc(Cc2ccc(F)cc2C(F)(F)F)n3C(C)C)cc1 [实施例4, N-(4-(乙磺酰基)苄基)-2-(4-氟-2-(三氟甲基)苄基)-1-异丙基-1H-吲哚-5-甲酰胺] | 表现出激动的效果 | 
CCc1ccccc1Cc1cc2cc(C(=O)NCc3ccc(S(=O)(=O)CC)cc3)ccc2n1C(C)C [实施例10, 2-(2-(乙基苄基)-N-(4-(乙磺酰基)苄基)-1-异丙基-1H-吲哚-5-甲酰胺] | 表现出激动的效果 | 
CCS(=O)(=O)c1ccc(CNC(=O)c2ccc3c(c2)cc(Cc2ccc(C(F)(F)F)cc2)n3C(C)C)cc1 [实施例14, N-(4-(乙磺酰基)苄基)-1-异丙基-2-(4-(三氟甲基)苄基)-1H-吲哚-5-甲酰胺] | 表现出抑制的效果 | 
CCS(=O)(=O)c1ccc(CNC(=O)c2ccc3c(c2)cc(Cc2ccc(C(F)(F)F)cc2F)n3C(C)C)cc1 [实施例15, N-(4-(乙磺酰基)苄基)-2-(2-氟-4-(三氟甲基)苄基)-1-异丙基-1H-吲哚-5-甲酰胺] | 表现出抑制的效果 | 
CCS(=O)(=O)c1ccc(CNC(=O)c2ccc3c(c2)cc(Cc2cccc(C(F)(F)F)c2)n3C(C)C)cc1 [实施例17, N-(4-(乙磺酰基)苄基)-1-异丙基-2-(3-(三氟甲基)苄基)-1H-吲哚-5-甲酰胺] | 表现出抑制的效果 | 
CCS(=O)(=O)c1ccc(CNC(=O)c2ccc3c(c2)cc(Cc2ccc(OC(F)(F)F)cc2)n3C(C)C)cc1 [实施例18, N-(4-(乙磺酰基)苄基)-1-异丙基-2-(4-(三氟甲氧基)苄基)-1H-吲哚-5-甲酰胺] | 表现出抑制的效果 | 
CCS(=O)(=O)c1ccc(CNC(=O)c2ccc3c(c2)cc(Cc2ccc(Cl)cc2C(F)(F)F)n3CCF)cc1 [实施例30, 2-(4-氯-2-(三氟甲基)苄基)-N-(4-(乙磺酰基)苄基)-1-(2-氟乙基)-1H-吲哚-5-甲酰胺] |  | TGI (tumour growth inhibition rate) ([1]; Example 30 (12.5 mg/kg) combined with anti-mouse PD-1 monoclonal antibody (5 mg/mouse)): 68%; synergy in words ([1]; Example 30 combined with PD-1 antibody, MC38 colon tumour model): 较强的协同效应; also recorded: 较强的协同作用; biological activity in vivo in words (RORγ activation versus inhibition) ([1]; MC38 colon tumour model, conclusion of the applicant): 具有与RORγ激活(而非抑制)一致的生物活性; TGI (tumour growth inhibition rate) ([1]; single agent, 12.5 mg/kg, twice daily, 21 days): 34%; antitumour effect in words ([1]; single agent, MC38 colon tumour model): 表现出抑瘤活性
